Measurements as given in ChEMBL document CHEMBL4295262, “Evaluation of the utility of stem-cell derived cardiomyocytes for drug proarrhythmic potential” (2019).

Experiments:
Conditions in all cases: human, ipsc-cm
[1] = (§1) Electrical activity assay on cell lines treated with a given drug. DMSO was used as a vehicle and a control, unblinded dofetilide was used as a control.
[2] = as §1; remark: listed apart in the source
[3] = as §1; assay type: ADME, cell-based; design: FPDc: unit not given here
[4] = as §1; assay type: cell-based; design: APDc: unit not given here
[5] = as §1; assay type: ADME, cell-based
[6] = as §1; assay type: ADME, cell-based; remark: listed apart in the source
[7] = as §1; remark: listed apart in the source
[8] = 0.0001 µM, concentration (um) 0.0001 uM
[9] = 0.001 µM, concentration (um) 0.001 uM
[10] = 0.01 µM, concentration (um) 0.01 uM
[11] = 0.1 µM, concentration (um) 0.1 uM
[12] = 10 µM, concentration (um) 10 uM
[13] = 100 µM, concentration (um) 100 uM
[14] = 0.9507 µM, concentration (um) 0.950736 uM
[15] = 3.004 µM, concentration (um) 3.00433 uM
[16] = 9.494 µM, concentration (um) 9.49367 uM
[17] = 30 µM, concentration (um) 30 uM
[18] = 0.0009507 µM, concentration (um) 0.000950736 uM
[19] = 0.003004 µM, concentration (um) 0.00300433 uM
[20] = 0.009494 µM, concentration (um) 0.00949367 uM
[21] = 0.03 µM, concentration (um) 0.03 uM

In the case of `COc1ccc(CCN2CCC(Nc3nc4ccccc4n3Cc3ccc(F)cc3)CC2)cc1` [ASTEMIZOLE], the FPD measurement ([1]; 0.0001 µM) is reported as 1 Values Out Of 1 Were Excluded Due To Quiescence Or 0 Fpdc, the FPDc ([1]; 0.0001 µM) is reported as 1 Values Out Of 1 Were Excluded Due To Quiescence Or 0 Fpdc and the FPD measurement ([1]; 0.001 µM) is reported as 1 Values Out Of 1 Were Excluded Due To Quiescence Or 0 Fpdc. The FPDc ([1]; 0.001 µM) was 1 Values Out Of 1 Were Excluded Due To Quiescence Or 0 Fpdc, the FPD measurement ([1]; 0.01 µM) was 1 Values Out Of 1 Were Excluded Due To Quiescence Or 0 Fpdc and the FPDc ([1]; 0.01 µM) was 1 Values Out Of 1 Were Excluded Due To Quiescence Or 0 Fpdc. For the same molecule, the FPD measurement ([1]; 0.1 µM) was 1 Values Out Of 1 Were Excluded Due To Quiescence Or 0 Fpdc, the FPDc ([1]; 0.1 µM) was 1 Values Out Of 1 Were Excluded Due To Quiescence Or 0 Fpdc and the FPD measurement ([2]; 0.0001 µM) was 55.11 FPDc. It also gave an FPDc ([2]; 0.0001 µM) of 55.11, an FPD measurement ([2]; 0.001 µM) of 55.33 FPDc and an FPDc ([2]; 0.001 µM) of 55.33. For the same molecule, the FPD measurement ([2]; 0.01 µM) was 57.8 FPDc, the FPDc ([2]; 0.01 µM) was 57.8 and the FPD measurement ([2]; 0.1 µM) was 75.34 FPDc. The FPDc ([2]; 0.1 µM) was 75.34, the FPD measurement [3, 8] was 5 Values Out Of 5 Were Excluded Due To Quiescence Or 0 Apdc and the FPDc [3, 8] was 53.45. For the same molecule, the FPD measurement [3, 9] was 5 Values Out Of 5 Were Excluded Due To Quiescence Or 0 Apdc, the FPDc [3, 9] was 49.25 and the FPD measurement [3, 10] was 5 Values Out Of 5 Were Excluded Due To Quiescence Or 0 Apdc. The FPDc [3, 10] was 53.23, the FPD measurement [3, 11] was 5 Values Out Of 5 Were Excluded Due To Quiescence Or 0 Apdc and the FPDc [3, 11] was 40.28. It also gave an APDc [4, 8] of 54.17, an FPD measurement [4, 8] of 54.17 FPDc and an APDc [4, 9] of 53.88. The FPD measurement [4, 9] was 53.88 FPDc, the APDc [4, 10] was 57.03 and the FPD measurement [4, 10] was 57.03 FPDc. For the same molecule, the APDc [4, 11] was 77.9 and the FPD measurement [4, 11] was 77.9 FPDc.
With `CC(C)N(CCC(C(N)=O)(c1ccccc1)c1ccccn1)C(C)C` (configuration not stated) [DISOPYRAMIDE] the FPD measurement ([1]; 0.1 µM) was 1 Values Out Of 1 Were Excluded Due To Quiescence Or 0 Fpdc, the FPDc ([1]; 0.1 µM) was 1 Values Out Of 1 Were Excluded Due To Quiescence Or 0 Fpdc and the FPD measurement ([1]; 1 µM) was 1 Values Out Of 1 Were Excluded Due To Quiescence Or 0 Fpdc. For the same molecule, the FPDc ([1]; 1 µM) was 1 Values Out Of 1 Were Excluded Due To Quiescence Or 0 Fpdc, the FPD measurement ([1]; 10 µM) was 1 Values Out Of 1 Were Excluded Due To Quiescence Or 0 Fpdc and the FPDc ([1]; 10 µM) was 1 Values Out Of 1 Were Excluded Due To Quiescence Or 0 Fpdc. The FPD measurement ([1]; 100 µM) was 1 Values Out Of 1 Were Excluded Due To Quiescence Or 0 Fpdc, the FPDc ([1]; 100 µM) was 1 Values Out Of 1 Were Excluded Due To Quiescence Or 0 Fpdc and the FPD measurement [5, 11] was 5 Values Out Of 5 Were Excluded Due To Quiescence Or 0 Apdc. The FPDc [5, 11] was 23.29, the FPD measurement ([5]; 1 µM, concentration (um) 1 uM) was 5 Values Out Of 5 Were Excluded Due To Quiescence Or 0 Apdc and the FPDc ([5]; 1 µM, concentration (um) 1 uM) was 24.45. For the same molecule, the FPD measurement [5, 12] was 5 Values Out Of 5 Were Excluded Due To Quiescence Or 0 Apdc, the FPDc [5, 12] was 24.5 and the FPD measurement [5, 13] was “More Than Half The Wells Had A Quiescence Event Or Apdc Readings Of 0”. The FPDc [5, 13] was “More Than Half The Wells Had A Quiescence Event Or Fpdc Readings Of 0”, the FPD measurement [3, 11] was 5 Values Out Of 5 Were Excluded Due To Quiescence Or 0 Apdc and the FPDc [3, 11] was 48.43. For the same molecule, the FPD measurement ([3]; 1 µM, concentration (um) 1 uM) was 5 Values Out Of 5 Were Excluded Due To Quiescence Or 0 Apdc, the FPDc ([3]; 1 µM, concentration (um) 1 uM) was 75.52 and the FPDc [3, 12] was 26.6. For the same molecule, the FPD measurement [3, 13] was 5 Values Out Of 5 Were Excluded Due To Quiescence Or 0 Apdc, the FPDc [3, 13] was 18.51 and the FPD measurement [6, 11] was 49.69 FPDc. For the same molecule, the FPDc [6, 11] was 6 Values Out Of 6 Were Excluded Due To Quiescence Or 0 Fpdc, the FPD measurement ([6]; 1 µM, concentration (um) 1 uM) was 52.18 FPDc and the FPDc ([6]; 1 µM, concentration (um) 1 uM) was 6 Values Out Of 6 Were Excluded Due To Quiescence Or 0 Fpdc. The FPD measurement [6, 12] was 63.31 FPDc, the FPDc [6, 12] was 6 Values Out Of 6 Were Excluded Due To Quiescence Or 0 Fpdc and the FPDc [6, 13] was 6 Values Out Of 6 Were Excluded Due To Quiescence Or 0 Fpdc. It also gave an APDc ([7]; 0.1 µM) of 56.58, an FPD measurement ([7]; 0.1 µM) of 56.58 FPDc and an APDc ([7]; 1 µM) of 63.45. It also gave an FPD measurement ([7]; 1 µM) of 63.45 FPDc, an APDc ([7]; 10 µM) of 68.66 and an FPD measurement ([7]; 10 µM) of 68.66 FPDc. It also gave an APDc ([7]; 100 µM) of 66.87 and an FPD measurement ([7]; 100 µM) of 66.87 FPDc.
For `C=C[C@H]1C[N@@]2CC[C@H]1C[C@@H]2[C@@H](O)c1ccnc2ccc(OC)cc12` [QUINIDINE], the FPD measurement ([2]; 0.9507 µM) was 66.27 FPDc, the FPDc ([2]; 0.9507 µM) was 66.27 and the FPD measurement ([2]; 3.004 µM) was “More Than Half The Wells Had A Quiescence Event Or Fpdc Readings Of 0”. The FPDc ([2]; 3.004 µM) was “More Than Half The Wells Had A Quiescence Event Or Fpdc Readings Of 0”, the FPD measurement ([2]; 9.494 µM) was “More Than Half The Wells Had A Quiescence Event Or Fpdc Readings Of 0” and the FPDc ([2]; 9.494 µM) was “More Than Half The Wells Had A Quiescence Event Or Fpdc Readings Of 0”. For the same molecule, the FPD measurement ([2]; 30 µM) was “More Than Half The Wells Had A Quiescence Event Or Fpdc Readings Of 0”, the FPDc ([2]; 30 µM) was “More Than Half The Wells Had A Quiescence Event Or Fpdc Readings Of 0” and the FPD measurement [5, 14] was 5 Values Out Of 5 Were Excluded Due To Quiescence Or 0 Apdc. For the same molecule, the FPDc [5, 14] was 23.33, the FPD measurement [5, 15] was 5 Values Out Of 5 Were Excluded Due To Quiescence Or 0 Apdc and the FPDc [5, 15] was 5 Values Out Of 5 Were Excluded Due To Quiescence Or 0 Fpdc. For the same molecule, the FPD measurement [5, 16] was “More Than Half The Wells Had A Quiescence Event Or Apdc Readings Of 0”, the FPDc [5, 16] was “More Than Half The Wells Had A Quiescence Event Or Fpdc Readings Of 0” and the FPD measurement [5, 17] was “More Than Half The Wells Had A Quiescence Event Or Apdc Readings Of 0”. The FPDc [5, 17] was “More Than Half The Wells Had A Quiescence Event Or Fpdc Readings Of 0”, the FPD measurement [3, 14] was 5 Values Out Of 5 Were Excluded Due To Quiescence Or 0 Apdc and the FPDc [3, 14] was 51.68. The FPD measurement [3, 15] was 5 Values Out Of 5 Were Excluded Due To Quiescence Or 0 Apdc, the FPDc [3, 15] was 48.01 and the FPD measurement [3, 16] was 5 Values Out Of 5 Were Excluded Due To Quiescence Or 0 Apdc. The FPDc [3, 16] was 56.69, the FPD measurement [3, 17] was 5 Values Out Of 5 Were Excluded Due To Quiescence Or 0 Apdc and the FPDc [3, 17] was 51.52. For the same molecule, the FPD measurement [6, 14] was 114.6 FPDc, the FPDc [6, 14] was 6 Values Out Of 6 Were Excluded Due To Quiescence Or 0 Fpdc and the FPD measurement [6, 15] was 62.36 FPDc. The FPDc [6, 15] was 6 Values Out Of 6 Were Excluded Due To Quiescence Or 0 Fpdc, the FPDc [6, 16] was 6 Values Out Of 6 Were Excluded Due To Quiescence Or 0 Fpdc and the FPDc [6, 17] was 6 Values Out Of 6 Were Excluded Due To Quiescence Or 0 Fpdc. It also gave an APDc ([7]; 0.9507 µM) of 66.37, an FPD measurement ([7]; 0.9507 µM) of 66.37 FPDc and an APDc ([7]; 3.004 µM) of 68.44. The FPD measurement ([7]; 3.004 µM) was 68.44 FPDc, the APDc ([7]; 9.494 µM) was “More Than Half The Wells Had A Quiescence Event Or Apdc Readings Of 0” and the FPD measurement ([7]; 9.494 µM) was “More Than Half The Wells Had A Quiescence Event Or Apdc Readings Of 0”. The APDc ([7]; 30 µM) was “More Than Half The Wells Had A Quiescence Event Or Apdc Readings Of 0” and the FPD measurement ([7]; 30 µM) was “More Than Half The Wells Had A Quiescence Event Or Apdc Readings Of 0”.
For `O=c1[nH]c2ccccc2n1C1CCN(CCCC(c2ccc(F)cc2)c2ccc(F)cc2)CC1` [PIMOZIDE], the FPD measurement ([1]; 0.0009507 µM) was 1 Values Out Of 1 Were Excluded Due To Quiescence Or 0 Fpdc, the FPDc ([1]; 0.0009507 µM) was 1 Values Out Of 1 Were Excluded Due To Quiescence Or 0 Fpdc and the FPD measurement ([1]; 0.003004 µM) was 1 Values Out Of 1 Were Excluded Due To Quiescence Or 0 Fpdc. For the same molecule, the FPDc ([1]; 0.003004 µM) was 1 Values Out Of 1 Were Excluded Due To Quiescence Or 0 Fpdc, the FPD measurement ([1]; 0.009494 µM) was 1 Values Out Of 1 Were Excluded Due To Quiescence Or 0 Fpdc and the FPDc ([1]; 0.009494 µM) was 1 Values Out Of 1 Were Excluded Due To Quiescence Or 0 Fpdc. The FPD measurement ([1]; 0.03 µM) was 1 Values Out Of 1 Were Excluded Due To Quiescence Or 0 Fpdc, the FPDc ([1]; 0.03 µM) was 1 Values Out Of 1 Were Excluded Due To Quiescence Or 0 Fpdc and the FPDc [3, 18] was 18.43. For the same molecule, the FPD measurement [3, 19] was 5 Values Out Of 5 Were Excluded Due To Quiescence Or 0 Apdc, the FPDc [3, 19] was 26.86 and the FPDc [3, 20] was 37.06. The FPDc [3, 21] was 13.57, the FPD measurement [6, 18] was 46.31 FPDc and the FPDc [6, 18] was 6 Values Out Of 6 Were Excluded Due To Quiescence Or 0 Fpdc. The FPD measurement [6, 19] was 49.59 FPDc, the FPDc [6, 19] was 6 Values Out Of 6 Were Excluded Due To Quiescence Or 0 Fpdc and the FPD measurement [6, 20] was 61.97 FPDc. For the same molecule, the FPDc [6, 20] was 6 Values Out Of 6 Were Excluded Due To Quiescence Or 0 Fpdc, the FPD measurement [6, 21] was 56.98 FPDc and the FPDc [6, 21] was 6 Values Out Of 6 Were Excluded Due To Quiescence Or 0 Fpdc. The APDc [4, 18] was 66.03, the FPD measurement [4, 18] was 66.03 FPDc and the APDc [4, 19] was 67.09. For the same molecule, the FPD measurement [4, 19] was 67.09 FPDc, the APDc [4, 20] was 74.77 and the FPD measurement [4, 20] was 74.77 FPDc. The APDc [4, 21] was 98.75 and the FPD measurement [4, 21] was 98.75 FPDc.
